{"source": "patent US5516790A", "about": "“Synthesis and application of alkyl-substituted dibenzofurans as antitumorigenic agents” (Texas A&M University System Technology Licensing Office, priority 1994, dated 1996)", "key": {"female rat uterus": {"system": "female rat uterus", "test": "Antiestrogenic effect on uterine wet weight, immature female Sprague-Dawley rats (Example 8)", "format": "in vivo"}, "estrogen receptor (ER)": {"system": "estrogen receptor (ER)", "test": "Uterine estrogen receptor levels, hydroxyapatite assay (Example 8)", "format": "in vivo, female Sprague-Dawley rats", "protocol": "A second group of animals was similarly treated with corn oil, TCDD, MCDF, or TCDD plus MCDF, all administered in corn oil at 10 ml/kg and terminated 72 hours later.\n(§1) The animals were terminated by cervical dislocation. Livers were perfused with ice-cold TEDG buffer (10 mM Tris-HCl, 1.5 mM EDTA-4Na, 1 mM dithiothreitol, 10% glycerol (v/v), pH 7.4). Following perfusion in situ, livers were removed, weighed, and homogenized in ice-cold TEDG buffer. Uteri were also removed, weighed, and homogenized in ice-cold buffer. The homogenates were then centrifuged at 800×g ([…]) for 15 minutes and the nuclear pellets were stored at -80° C. The supernatants were further centrifuged at 180,000× g for 1.5 hours. The cytosolic supernatant was also stored at -80° C. Estrogen and progesterone receptor levels were determined within 7 days.\n(§2) Estrogen (ER) and progesterone (PR) receptor levels were determined by the hydroxyapatite assay as described by Clark et al. (J. Steroid Biochem. 16:323-328, 1982) and incorporated herein by reference. […] Following the incubations, samples were counted and specific binding was calculated by subtraction of nonspecific from total binding. Assuming one steroid molecule binds to one estrogen/progesterone receptor, the number of moles of receptor can be calculated given the specific activity of the radioligand. The data presented in Tables 1 through 6 are means ± SD using at least four animals per treatment group. Significant differences were determined by analysis of variance."}, "[1]": {"system": "progesterone receptor (PR)", "test": "Uterine progesterone receptor levels, hydroxyapatite assay (Example 8)", "format": "in vivo, female Sprague-Dawley rats", "protocol": "as §1, §2"}, "[2]": {"conditions": "dose-response, 10 μmol/kg + 17β-estradiol (2 × 10 μg/rat)"}, "[3]": {"conditions": "dose-response, 25 μmol/kg + 17β-estradiol (2 × 10 μg/rat)"}, "[4]": {"conditions": "dose-response, 50 μmol/kg + 17β-estradiol (2 × 10 μg/rat)"}, "[5]": {"conditions": "dose-response, 150 μmol/kg + 17β-estradiol (2 × 10 μg/rat)"}, "[6]": {"conditions": "150 μmol/kg + E-2 (2 × 10 μg/rat), run A"}, "[7]": {"conditions": "compound alone, 150 μmol/kg (17β-estradiol: 2 × 10 μg/rat), run A"}, "[8]": {"conditions": "150 μmol/kg + E-2 (2 × 10 μg/rat), run B"}, "[9]": {"conditions": "compound alone, 150 μmol/kg (17β-estradiol: 2 × 10 μg/rat), run B"}, "[10]": {"conditions": "Table 2: 50 μmol/kg + E-2 (2 × 10 μg/rat)"}, "[11]": {"conditions": "Table 2: compound alone, 50 μmol/kg (17β-estradiol: 2 × 10 μg/rat)"}}}
{"smiles": "CCCc1cc(Cl)cc2c1oc1cc(Cl)cc(Cl)c12", "note": "[6-Propyl-1,3,8-Trichlorodibenzofuran]", "values": [{"measurement": "Uterine Wet Weight", "setting": "female rat uterus; [2]", "value": "0.192 ± 0.013", "unit": "% body wt"}, {"measurement": "Uterine Wet Weight", "setting": "female rat uterus; [3]", "value": "0.170 ± 0.010", "unit": "% body wt"}, {"measurement": "Uterine Wet Weight", "setting": "female rat uterus; [4]", "value": "0.202 ± 0.014", "unit": "% body wt"}, {"measurement": "Uterine Wet Weight", "setting": "female rat uterus; [5]", "value": "0.216 ± 0.012", "unit": "% body wt"}, {"measurement": "Estrogen Receptor Levels, Cytosolic", "setting": "estrogen receptor (ER); [2]", "value": "105.5 ± 5.3", "unit": "fmol/mg protein"}, {"measurement": "Estrogen Receptor Levels, Nuclear", "setting": "estrogen receptor (ER); [2]", "value": "81.5 ± 4.9", "unit": "fmol/mg protein"}, {"measurement": "Estrogen Receptor Levels, Cytosolic", "setting": "estrogen receptor (ER); [3]", "value": "87.8 ± 4.4", "unit": "fmol/mg protein"}, {"measurement": "Estrogen Receptor Levels, Nuclear", "setting": "estrogen receptor (ER); [3]", "value": "56.6 ± 2.8", "unit": "fmol/mg protein"}, {"measurement": "Estrogen Receptor Levels, Cytosolic", "setting": "estrogen receptor (ER); [4]", "value": "66.7 ± 3.3", "unit": "fmol/mg protein"}, {"measurement": "Estrogen Receptor Levels, Nuclear", "setting": "estrogen receptor (ER); [4]", "value": "41.1 ± 2.1", "unit": "fmol/mg protein"}, {"measurement": "Estrogen Receptor Levels, Cytosolic", "setting": "estrogen receptor (ER); [5]", "value": "88.2 ± 4.4", "unit": "fmol/mg protein"}, {"measurement": "Estrogen Receptor Levels, Nuclear", "setting": "estrogen receptor (ER); [5]", "value": "35.6 ± 1.8", "unit": "fmol/mg protein"}, {"measurement": "Progesterone Receptor Levels, Cytosolic", "setting": "[1]; [2]", "value": "1501 ± 105", "unit": "fmol/mg protein"}, {"measurement": "Progesterone Receptor Levels, Nuclear", "setting": "[1]; [2]", "value": "850 ± 68", "unit": "fmol/mg protein"}, {"measurement": "Progesterone Receptor Levels, Cytosolic", "setting": "[1]; [3]", "value": "1055 ± 74", "unit": "fmol/mg protein"}, {"measurement": "Progesterone Receptor Levels, Nuclear", "setting": "[1]; [3]", "value": "515 ± 41", "unit": "fmol/mg protein"}, {"measurement": "Progesterone Receptor Levels, Cytosolic", "setting": "[1]; [4]", "value": "1105 ± 77", "unit": "fmol/mg protein"}, {"measurement": "Progesterone Receptor Levels, Nuclear", "setting": "[1]; [4]", "value": "510 ± 41", "unit": "fmol/mg protein"}, {"measurement": "Progesterone Receptor Levels, Cytosolic", "setting": "[1]; [5]", "value": "1190 ± 83", "unit": "fmol/mg protein"}, {"measurement": "Progesterone Receptor Levels, Nuclear", "setting": "[1]; [5]", "value": "660 ± 53", "unit": "fmol/mg protein"}]}
{"smiles": "Cc1cc(Cl)c2oc3cc(Cl)cc(Cl)c3c2c1", "note": "[8-Methyl-1,3,6-triCDF]", "values": [{"measurement": "Uterine Wet Weight", "setting": "female rat uterus; [6]", "value": "0.212 ± 0.021", "unit": "% body wt"}, {"measurement": "Uterine Wet Weight", "setting": "female rat uterus; [7]", "value": "0.089 ± 0.008", "unit": "% body wt"}, {"measurement": "Estrogen Receptor Levels, Cytosolic", "setting": "estrogen receptor (ER); [6]", "value": "65.9 ± 77.5", "unit": "fmol/mg protein"}, {"measurement": "Estrogen Receptor Levels, Nuclear", "setting": "estrogen receptor (ER); [6]", "value": "20.8 ± 70.5", "unit": "fmol/mg protein"}, {"measurement": "Estrogen Receptor Levels, Cytosolic", "setting": "estrogen receptor (ER); [7]", "value": "54.1 ± 6.2", "unit": "fmol/mg protein"}, {"measurement": "Estrogen Receptor Levels, Nuclear", "setting": "estrogen receptor (ER); [7]", "value": "38.1 ± 5.8", "unit": "fmol/mg protein"}, {"measurement": "Progesterone Receptor Levels, Cytosolic", "setting": "[1]; [6]", "value": "838 ± 66", "unit": "fmol/mg protein"}, {"measurement": "Progesterone Receptor Levels, Nuclear", "setting": "[1]; [6]", "value": "203 ± 35", "unit": "fmol/mg protein"}, {"measurement": "Progesterone Receptor Levels, Cytosolic", "setting": "[1]; [7]", "value": "686 ± 77", "unit": "fmol/mg protein"}, {"measurement": "Progesterone Receptor Levels, Nuclear", "setting": "[1]; [7]", "value": "188 ± 29", "unit": "fmol/mg protein"}]}
{"smiles": "CC(C)(C)c1cc(Cl)cc2c1oc1cc(Cl)cc(Cl)c12", "note": "[6-t-Butyl-1,3,8-triCDF]", "values": [{"measurement": "Uterine Wet Weight", "setting": "female rat uterus; [8]", "value": "0.247 ± 0.004", "unit": "% body wt"}, {"measurement": "Uterine Wet Weight", "setting": "female rat uterus; [9]", "value": "0.122 ± 0.013", "unit": "% body wt"}, {"measurement": "Estrogen Receptor Levels, Cytosolic", "setting": "estrogen receptor (ER); [8]", "value": "108.6 ± 11.4", "unit": "fmol/mg protein"}, {"measurement": "Estrogen Receptor Levels, Nuclear", "setting": "estrogen receptor (ER); [8]", "value": "41.7 ± 2.1", "unit": "fmol/mg protein"}, {"measurement": "Estrogen Receptor Levels, Cytosolic", "setting": "estrogen receptor (ER); [9]", "value": "85.5 ± 4.3", "unit": "fmol/mg protein"}, {"measurement": "Estrogen Receptor Levels, Nuclear", "setting": "estrogen receptor (ER); [9]", "value": "41.4 ± 2.1", "unit": "fmol/mg protein"}, {"measurement": "Progesterone Receptor Levels, Cytosolic", "setting": "[1]; [8]", "value": "1844 ± 77", "unit": "fmol/mg protein"}, {"measurement": "Progesterone Receptor Levels, Nuclear", "setting": "[1]; [8]", "value": "270 ± 19", "unit": "fmol/mg protein"}, {"measurement": "Progesterone Receptor Levels, Cytosolic", "setting": "[1]; [9]", "value": "1109 ± 83", "unit": "fmol/mg protein"}, {"measurement": "Progesterone Receptor Levels, Nuclear", "setting": "[1]; [9]", "value": "211 ± 15", "unit": "fmol/mg protein"}]}
{"smiles": "CC(C)c1cc(Cl)cc2c1oc1cc(Cl)cc(Cl)c12", "note": "[6-i-Propyl-1,3,8-triCDF]", "values": [{"measurement": "Uterine Wet Weight", "setting": "female rat uterus; [8]", "value": "0.210 ± 0.012", "unit": "% body wt"}, {"measurement": "Uterine Wet Weight", "setting": "female rat uterus; [9]", "value": "0.154 ± 0.017", "unit": "% body wt"}, {"measurement": "antiuterotrophic activity", "setting": "female rat uterus; rat, in vivo", "value": "surprisingly active"}, {"measurement": "Estrogen Receptor Levels, Cytosolic", "setting": "estrogen receptor (ER); [8]", "value": "135.5 ± 78.1", "unit": "fmol/mg protein"}, {"measurement": "Estrogen Receptor Levels, Nuclear", "setting": "estrogen receptor (ER); [8]", "value": "52.6 ± 2.6", "unit": "fmol/mg protein"}, {"measurement": "Estrogen Receptor Levels, Cytosolic", "setting": "estrogen receptor (ER); [9]", "value": "95.2 ± 6.2", "unit": "fmol/mg protein"}, {"measurement": "Estrogen Receptor Levels, Nuclear", "setting": "estrogen receptor (ER); [9]", "value": "57.7 ± 2.9", "unit": "fmol/mg protein"}, {"measurement": "ED40-60 for Inhibition, ERc", "setting": "estrogen receptor (ER); cotreatment with 17β-estradiol", "value": 10, "unit": "µmol/kg"}, {"measurement": "ED40-60 for Inhibition, ERn", "setting": "estrogen receptor (ER); cotreatment with 17β-estradiol", "value": 25, "unit": "µmol/kg"}, {"measurement": "Progesterone Receptor Levels, Cytosolic", "setting": "[1]; [8]", "value": "2131 ± 76", "unit": "fmol/mg protein"}, {"measurement": "Progesterone Receptor Levels, Nuclear", "setting": "[1]; [8]", "value": "272 ± 19", "unit": "fmol/mg protein"}, {"measurement": "Progesterone Receptor Levels, Cytosolic", "setting": "[1]; [9]", "value": "1225 ± 59", "unit": "fmol/mg protein"}, {"measurement": "Progesterone Receptor Levels, Nuclear", "setting": "[1]; [9]", "value": "242 ± 17", "unit": "fmol/mg protein"}, {"measurement": "ED40-60 for Inhibition, PRc", "setting": "[1]; cotreatment with 17β-estradiol", "value": 25, "unit": "µmol/kg"}, {"measurement": "ED40-60 for Inhibition, PRn", "setting": "[1]; cotreatment with 17β-estradiol", "value": 25, "unit": "µmol/kg"}]}
{"smiles": "Cc1cc2c(cc1Cl)oc1c(Cl)cc(Cl)c(Cl)c12", "note": "[8-Methyl-1,2,4,7-tetraCDF, 8-methyl-1,2,4,7-tetrachlorodibenzofuran]", "values": [{"measurement": "Uterine Wet Weight", "setting": "female rat uterus; [10]", "value": "0.213 ± 0.017", "unit": "% body wt"}, {"measurement": "Uterine Wet Weight", "setting": "female rat uterus; [11]", "value": "0.175 ± 0.007", "unit": "% body wt"}, {"measurement": "Estrogen Receptor Levels, Cytosolic", "setting": "estrogen receptor (ER); [10]", "value": "118.4 ± 14.6", "unit": "fmol/mg protein"}, {"measurement": "Estrogen Receptor Levels, Nuclear", "setting": "estrogen receptor (ER); [10]", "value": "66.5 ± 8.9", "unit": "fmol/mg protein"}, {"measurement": "Estrogen Receptor Levels, Cytosolic", "setting": "estrogen receptor (ER); [11]", "value": "97.1 ± 10.1", "unit": "fmol/mg protein"}, {"measurement": "Estrogen Receptor Levels, Nuclear", "setting": "estrogen receptor (ER); [11]", "value": "40.6 ± 5.3", "unit": "fmol/mg protein"}, {"measurement": "Progesterone Receptor Levels, Cytosolic", "setting": "[1]; [10]", "value": "841 ± 73", "unit": "fmol/mg protein"}, {"measurement": "Progesterone Receptor Levels, Nuclear", "setting": "[1]; [10]", "value": "399 ± 75", "unit": "fmol/mg protein"}, {"measurement": "Progesterone Receptor Levels, Cytosolic", "setting": "[1]; [11]", "value": "685 ± 59", "unit": "fmol/mg protein"}, {"measurement": "Progesterone Receptor Levels, Nuclear", "setting": "[1]; [11]", "value": "303 ± 46", "unit": "fmol/mg protein"}]}
